Data from publication PMC7804859, “A metabolically stable apelin-17 analog decreases AVP-induced antidiuresis and improves hyponatremia” (Nature Communications, 2021).
“And” between values parts separate entries of the source, which are not always exact repeats. Equal values may be shown once.

Tests used:
control rats = test: Plasma AVP and apelin-IR levels in control rats (RIA); format: in vivo, rat; parameters: Apelin / AVP: unit not given here
Experimental: (§1) 187 Apelin radioimmunoassay
(§2) 189 until use for apelin RIA.
(§3) The supernatants were collected and
(§4) The samples were dried and dissolved in
(§5) 201 centrifuged (17000 x g, 4°C, 20 min). The supernatant (4 ml) was collected, and mixed with
(§6) The columns were then treated as described in
(§7) Samples (0.1ml) w ere mixed with 125I-
(§8) 212 used this radioligand instead of [Glp65, Nle75, Tyr77] [125I]-apelin13 since the substitution of
(§9) 214 derivatives as described previously by 3,4.
(§10) 216 incubated for 10 min at room temperature.
(§11) This antiserum identified the apelin present in the
Most of the apelin in human plasma was
252 TechMedILL platfor m (Illkirch) reviewed and approved by the agriculture ministry regulating
256 Male Sprague-Dawley rats were killed by decapitation, and trunk blood was collected on ice
257 (into 50 µl of 0.3M EDTA (pH 7.4) per 1 ml of blood). Samples were centrifuged (2,600 x g,
258 4°C, 20 min), and the resulting plasma was split into 500 µl aliquots, to which we added 168
259 µl of 3N HCl before storage at -80°C. The AVP RIA was performed as previously described
260 5, using a specific AVP-[Arg8] antibody (final dilution, 1/4.5) and [125I]-(Tyr2Arg8)-AVP
261 (2200 Ci/mmol, Perkin-Elmer, Billerica, MA; 15000 dpm) as a tracer. […]

[1] = tested on: hyponatremic rats (AVP 30 ng/h); test: Effects of LIT01-196 and tolvaptan in rat model of AVP-induced hyponatremia; format: in vivo
Experimental: Meloxicam was administered postoperatively for analgesia. Animals were then individually housed in metabolic cages (Techniplast), and given a semi-liquid diet consisting of 25 ml Gel-Diet Breeding-10 (SAFE, Augy, France) mixed with 25 ml tap water per day, with water available ad libitum. Animal weight, water, and food consumption were measured daily. Urine was collected daily, urinary electrolytes (Na^+, K^+, Cl^−) were determined with an ISE 3000 (Caretium Medical Instruments, Shenzhen, China) and urinary osmolality was measured with a Cryobasic 1 osmometer (Astori Tecnica, Poncarale, Italy). Blood samples were collected on ice, before implantation of the osmotic minipump, and before drug administration, under isoflurane anesthesia, from the tail vein (4 µl of lithium heparinate (1600 IU/ml) for 400 µl of blood). The blood samples were immediately centrifuged (4 °C, 2600 × g, 20 min), and plasma electrolyte (Na^+, K^+, Cl^−) levels were quantified with an ISE 3000. On the last day of the experiment, blood was also collected on ice by intracardiac puncture. This blood sample was collected into lithium heparinate under isoflurane anesthesia; plasma electrolyte levels were determined as described above and the animals were immediately killed by carbon monoxide inhalation.

[2] = Brain apelin-immunoreactive levels in mice (RIA); format: in vivo, mouse
Experimental: Then cells were treated with 10
Results are expressed in femtomoles of cAMP produced
as §1, §2, §3, §4, §5, §6, §7, §8, §9, §10, §11
Most of the apelin in human plasma was […]

rat apelin-R-EGFP = biological target: T1, rat apelin-R-EGFP (Rattus norvegicus, UniProt Q9JHG3); test: Inhibition of forskolin-induced cAMP production in CHO cells stably expressing rat apelin-R-EGFP (HTRF); format: cell-based; conditions: 5 µmol/l forskolin, 30 min 20 °C
T1 construct: expressed in transfected cells
T1 sequence (Q9JHG3 1-377): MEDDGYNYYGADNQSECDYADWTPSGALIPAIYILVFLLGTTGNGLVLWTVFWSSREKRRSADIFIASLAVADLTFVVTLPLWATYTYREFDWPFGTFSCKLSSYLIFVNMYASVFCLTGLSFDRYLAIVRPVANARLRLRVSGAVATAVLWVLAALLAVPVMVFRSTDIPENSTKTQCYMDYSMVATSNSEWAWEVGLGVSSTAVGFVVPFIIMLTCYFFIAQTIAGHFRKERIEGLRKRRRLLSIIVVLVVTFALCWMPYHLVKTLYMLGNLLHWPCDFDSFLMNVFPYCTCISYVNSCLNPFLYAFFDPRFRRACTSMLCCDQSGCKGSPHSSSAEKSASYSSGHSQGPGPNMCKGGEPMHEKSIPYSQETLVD
Experimental: 152 Supplementary Methods
154 We quantified cAMP production with the cAMP dynamic 2 assay kit (Cisbio Bioassays,
155 Codolet, France), which is based on homogeneous time-resolved fluorescence (HTRF)
156 technology, as previously described 1. For cells expressing the Apelin-R, 2000 CHO cells/well
157 stably expressing rat apelinR-EGFP (clone B70) were added to the 384-well plate and
158 stimulated with 5 µmol/l forskolin (FSK) and various concentrations (0.01 pmol/l to 100 […]
Cells were then lysed, and
165 cAMP levels were determined in accordance with the kit manufacturer’s instructions.
166 Stimulation was performed in stimulation buffer-IBMX (SBI) (Hank’s balanced salt solution
167 (HBSS-Life Technology), 5 mmol/l Hepes, 0.1% BSA stabilizer (Perkin Elmer), 1 mmol/l
168 isobutylmethylxanthine (IBMX, Sigma Aldrich, pH 7.4)). […]

[3] = Brain apelin-immunoreactive levels in rats (RIA); format: in vivo, rat
Experimental: as §1, §2, §3, §4, §5, §6, §7, §8, §9, §10

apelin-R and V2-R = test: dDAVP-induced cAMP production in CHO cells stably expressing both the apelin-R and the V2-R; format: cell-based
in vivo = conditions: for Apelin (plasma apelin-immunoreactive level): single animals
Experimental: as §1
188 Plasma samples (0.5 ml) were acidified with 0.175 ml of 3 mol/l HCl and stored at -80°C
189 until use for apelin RIA. Before thawing the sample on ice, 0.05% BSA was added, and the
190 samples were centrifuged at 20000 x g at 4°C for 10 min. The supernatants were collected and
191 the pH was adjusted to 6.5 with 10 mol/l NaOH and 2 mol/l Tris-HCl buffer (pH 7.4). Apelin
192 was extracted from plasma by mixing the supernatant with 0.3 ml of 0.1% BSA in H2O and 1
193 ml of 1% trifluoroacetic acid (TFA) - 0.1% BSA, and running the mixture on a Sep-Pak C18
194 cartridge (Waters) previously washed with 2 ml 100% acetonitrile and equilibrated with 5 ml
195 1% TFA - 0.1% BSA. The columns then were washed with 3 ml 1% TFA - 0.1% BSA and
196 apelin was eluted with 1.5 ml 100% acetonitrile. […]
208 Plasma or brain apelin levels w ere deter mined by RIA. Samples (0.1ml) w ere mixed with 125I-
211 dilution: 1/4500) to give a total volume of 0.2 ml and were incubated at 4°C overnight. We
as §8, §9
215 We then added 0.5 ml of Amerlex (Amersham RPN 510), and the resulting mixture was
216 incubated for 10 min at room temperature. The tubes were centrifuged at 2600 x g at 4°C for
217 20 min. The supernatant was removed and the radioactivity of the precipitates was measured.
218 We assessed the cross-reactivity of the apelin antiserum with various N- and C-terminally
232 according to the following equation: [plasma apelin] tx = [plasma apelin] t0 * e(-kt) , where k is
233 the elimination rate constant. […]

CSCC[C@H](NC(=O)[C@@H]1CCCN1C(=O)CNC(=O)[C@H](CCCCN)NC(=O)[C@H](Cc1c[nH]cn1)NC(=O)[C@H](CO)NC(=O)[C@H](CC(C)C)NC(=O)[C@H](CCCNC(=N)N)NC(=O)[C@@H]1CCCN1C(=O)[C@H](CCCNC(=N)N)NC(=O)[C@H](CCC(N)=O)NC(=O)[C@H](CCCNC(=N)N)NC(=O)[C@H](CCCNC(=N)N)NC(=O)[C@H](Cc1ccccc1)NC(=O)[C@H](CCCCN)NC(=O)CCC(F)(F)C(F)(F)C(F)(F)C(F)(F)C(F)(F)C(F)(F)C(F)(F)C(F)(F)F)C(=O)N1CCC[C@H]1C(=O)N[C@@H](Cc1ccccc1)C(=O)O [LIT01-196]
plasma apelin-IR levels, higher than in control rats (control rats; 3 h after 900 nmol/kg s.c.): 185% | plasma apelin/AVP ratio, higher than in control rats (control rats; 3 h after 900 nmol/kg s.c.): 105% | plasma AVP levels, higher than in animals receiving saline (control rats; 3 h after s.c., tolvaptan 6700 nmol/kg, LIT01-196 900 nmol/kg): 37% | AVP (control rats; plasma AVP, LIT01-196 900 nmol/kg SC, individual animals (Fig. S4F source data)): 22.8083 and 24.884 and 19.0278 and 19.6598 and 20.1271 and 24.6505 and 19.9264 | Apelin (control rats; plasma apelin-IR, LIT01-196 900 nmol/kg SC, individual animals (Fig. S4E source data)): 1622 and 1536 and 1658 and 938 and 943 and 1033 and 1679 | apelinAVPratio (control rats; plasma apelin/AVP ratio, LIT01-196 900 nmol/kg SC, individual animals (Fig. S4G source data)): 71.1145 and 61.7264 and 87.1356 and 47.7116 and 46.8522 and 41.9059 and 84.2603 | increase in urine output 24 h after s.c. administration ([1]; 180 nmol/kg s.c., rats receiving 30 ng/h AVP): 1.5 ± 2.0 ml/24 h/100 g | urine osmolality, lower than AVP + saline group ([1]; 900 nmol/kg s.c. on days 0 and 1): 58% | urine output, higher than AVP + saline group ([1]; 900 nmol/kg s.c. on days 0 and 1, average days 1 to 2, n = 9): 185% | plasma sodium concentration on day 2 ([1]; 900 nmol/kg s.c. on days 0 and 1, saline 100 ± 2): 110 ± 5 mmol/L | plasma sodium concentration on day 1 ([1]; 900 nmol/kg s.c., 24 h after first administration, saline 100 ± 2): 109 ± 5 mmol/L | body weight change from baseline versus saline ([1]; 900 nmol/kg s.c., AVP-treated animals): similar | water consumption (including water in diet), higher than AVP + saline group ([1]; 900 nmol/kg s.c., average days 1 to 2): 177% | food consumption ([1]; 900 nmol/kg s.c., hyponatremic rats): significant increase | increase in urine output 24 h after s.c. administration ([1]; 900 nmol/kg s.c., rats receiving 30 ng/h AVP and liquid diet): 11.7 ± 2.3 ml/24 h/100 g | increase in urine output 24 h after s.c. administration ([1]; 2400 nmol/kg s.c., rats receiving 30 ng/h AVP): 9.2 ± 4.1 ml/24 h/100 g | apelin.brain ([2]; LIT01-196 900 nmol/kg, individual animals (Fig. S2C source data)): 0.257 and 0.271 and 0.513 and 0.58 | apelin-IR levels in the brain ([2]; mice, 30 min after s.c. 900 nmol/kg, saline 0.391 ± 0.045, n = 5): 0.440 ± 0.073 pmol/brain | IC50 (rat apelin-R-EGFP): 1.7 ± 0.5 nM | crossing of the blood-brain barrier ([3]; rats and mice, 30 min after s.c. 900 nmol/kg): does not cross the BBB and does not enter the brain | Brain apelin ([3]; rats, 30 min after 900 nmol/kg SC, single animals): 1.581 and 0.931 and 1.563 and 1.024 and 1.473 | apelin-IR levels in the brain ([3]; rats, 30 min after s.c. 900 nmol/kg, saline 1.2 ± 0.15, n = 5): 1.3 ± 0.14 pmol/brain | dDAVP-induced cAMP production (apelin-R and V2-R): dose-dependently inhibits | plasma apelin levels (in vivo; Sprague-Dawley rats, 30 min after s.c. 900 nmol/kg, basal 0.36 ± 0.05, n = 5): 1.3 ± 0.22 pmol/mL | in vivo half-life in the blood circulation, i.v. (in vivo; alert rats, 15 nmol/kg i.v., RIA): 0.467 h | in vivo half-life in the blood circulation, s.c. (in vivo; alert rats, 900 nmol/kg s.c., RIA): 2.6 h | Apelin (plasma apelin-immunoreactive level) (in vivo; rats, 15 nmol/kg IV, time 5 min): 3.535 and 7.0448 | Apelin (plasma apelin-immunoreactive level) (in vivo; rats, 15 nmol/kg IV, time 7.5 min): 6.127 and 4.75 and 3.783 | Apelin (plasma apelin-immunoreactive level) (in vivo; rats, 15 nmol/kg IV, time 10 min): 3.32 and 4.264 | Apelin (plasma apelin-immunoreactive level) (in vivo; rats, 15 nmol/kg IV, time 15 min): 3.56 and 2.876 and 2.207 | Apelin (plasma apelin-immunoreactive level) (in vivo; rats, 15 nmol/kg IV, time 60 min): 1.212 and 1.2225 | Apelin (plasma apelin-immunoreactive level) (in vivo; rats, 900 nmol/kg SC, time 60 min): 3.999 and 3.58 | Apelin (plasma apelin-immunoreactive level) (in vivo; rats, 900 nmol/kg SC, time 120 min): 2.002 and 1.919 and 1.949 | Apelin (plasma apelin-immunoreactive level) (in vivo; rats, 900 nmol/kg SC, time 270 min): 1.1931 and 0.8899 and 1.066 | Apelin (plasma apelin-immunoreactive level) (in vivo; rats, 900 nmol/kg SC, time 360 min): 1.029 and 0.9091 and 0.7789 | Apelin (plasma apelin-immunoreactive level) (in vivo; rats, 900 nmol/kg SC, time 1440 min): 0.4742 and 0.5151 and 0.6469 | plasma apelin levels, times higher than basal levels (in vivo; rats, 30 min after s.c. 900 nmol/kg): 3.6 times
